{"source": "PubChem BioAssay AID1259407", "about": "(Chemical Carcinogenesis Research Information System (CCRIS), 2018)", "tested_on": "CCRIS mutagenicity, Ames/micronucleus/aberration tests", "experiment": "CCRIS mutagenicity studies", "key": {"[1]": {"conditions": "Test System: AMES SALMONELLA TYPHIMURIUM, Strain/Indicator: TA1535, Metabolic Activation: NONE, Method: PREINCUBATION"}, "[2]": {"conditions": "Test System: AMES SALMONELLA TYPHIMURIUM, Strain/Indicator: TA98, Metabolic Activation: NONE, Method: STANDARD PLATE"}, "[3]": {"conditions": "Test System: AMES SALMONELLA TYPHIMURIUM, Strain/Indicator: TA98, Metabolic Activation: RAT, LIVER, S-9, AROCLOR 1254, Method: STANDARD PLATE"}, "[4]": {"conditions": "Test System: AMES SALMONELLA TYPHIMURIUM, Strain/Indicator: TA100, Metabolic Activation: NONE, Method: STANDARD PLATE"}}, "note": "Calls of active or inactive are those of the source. The rule behind the calls is not given here.", "data": [{"smiles": "Nc1cccc2cccc(S(=O)(=O)O)c12", "values": [{"measurement": "mutagenic call", "setting": "Test System: AMES SALMONELLA TYPHIMURIUM, Strain/Indicator: TA98, Metabolic Activation: NONE, Method: PREINCUBATION", "value": "inactive; negative"}, {"measurement": "mutagenic call", "setting": "Test System: AMES SALMONELLA TYPHIMURIUM, Strain/Indicator: TA98, Metabolic Activation: RAT LIVER S-9, PHENOBARBITAL AND BETA-NAPHTHOFLAVONE, Method: PREINCUBATION", "value": "active; positive"}, {"measurement": "mutagenic call", "setting": "Test System: AMES SALMONELLA TYPHIMURIUM, Strain/Indicator: TA100, Metabolic Activation: NONE, Method: PREINCUBATION", "value": "inactive; negative"}, {"measurement": "mutagenic call", "setting": "Test System: AMES SALMONELLA TYPHIMURIUM, Strain/Indicator: TA100, Metabolic Activation: RAT LIVER S-9, PHENOBARBITAL AND BETA-NAPHTHOFLAVONE, Method: PREINCUBATION", "value": "inactive; negative"}, {"measurement": "mutagenic call", "setting": "[1]", "value": "inactive; negative"}, {"measurement": "mutagenic call", "setting": "Test System: AMES SALMONELLA TYPHIMURIUM, Strain/Indicator: TA1535, Metabolic Activation: RAT LIVER S-9, PHENOBARBITAL AND BETA-NAPHTHOFLAVONE, Method: PREINCUBATION", "value": "inactive; negative"}, {"measurement": "mutagenic call", "setting": "Test System: AMES SALMONELLA TYPHIMURIUM, Strain/Indicator: TA1537, Metabolic Activation: NONE, Method: PREINCUBATION", "value": "inactive; negative"}, {"measurement": "mutagenic call", "setting": "Test System: AMES SALMONELLA TYPHIMURIUM, Strain/Indicator: TA1537, Metabolic Activation: RAT LIVER S-9, PHENOBARBITAL AND BETA-NAPHTHOFLAVONE, Method: PREINCUBATION", "value": "active; positive"}, {"measurement": "mutagenic call", "setting": "Test System: AMES SALMONELLA TYPHIMURIUM, Strain/Indicator: TA1538, Metabolic Activation: NONE, Method: PREINCUBATION", "value": "inactive; negative"}, {"measurement": "mutagenic call", "setting": "Test System: AMES SALMONELLA TYPHIMURIUM, Strain/Indicator: TA1538, Metabolic Activation: RAT LIVER S-9, PHENOBARBITAL AND BETA-NAPHTHOFLAVONE, Method: PREINCUBATION", "value": "active; positive"}, {"measurement": "mutagenic call", "setting": "Test System: E.COLI, Strain/Indicator: WP2UVRA, Metabolic Activation: NONE, Method: PREINCUBATION", "value": "inactive; negative"}, {"measurement": "mutagenic call", "setting": "Test System: E.COLI, Strain/Indicator: WP2UVRA, Metabolic Activation: RAT LIVER S-9, PHENOBARBITAL AND BETA-NAPHTHOFLAVONE, Method: PREINCUBATION", "value": "inactive; negative"}]}, {"smiles": "O=[N+]([O-])c1ccc2c(O)cc3cccc4ccc1c2c43", "values": [{"measurement": "mutagenic call", "setting": "Test System: AMES SALMONELLA TYPHIMURIUM, Strain/Indicator: TA98(1,8-DNP6), Metabolic Activation: NONE, Method: STANDARD PLATE", "value": "active; positive"}, {"measurement": "mutagenic call", "setting": "Test System: AMES SALMONELLA TYPHIMURIUM, Strain/Indicator: TA98(1,8-DNP6), Metabolic Activation: RAT, LIVER, S-9, AROCLOR 1254, Method: STANDARD PLATE", "value": "active; positive"}, {"measurement": "mutagenic call", "setting": "[2]", "value": "active; positive"}, {"measurement": "mutagenic call", "setting": "[3]", "value": "active; positive"}, {"measurement": "mutagenic call", "setting": "Test System: AMES SALMONELLA TYPHIMURIUM, Strain/Indicator: YG1024, Metabolic Activation: NONE, Method: STANDARD PLATE", "value": "active; positive"}, {"measurement": "mutagenic call", "setting": "Test System: AMES SALMONELLA TYPHIMURIUM, Strain/Indicator: YG1024, Metabolic Activation: RAT, LIVER, S-9, AROCLOR 1254, Method: STANDARD PLATE", "value": "active; positive"}]}, {"smiles": "Clc1cccc2oc3ccccc3c12", "values": [{"measurement": "mutagenic call", "setting": "[2]", "value": "inactive; negative"}, {"measurement": "mutagenic call", "setting": "Test System: AMES SALMONELLA TYPHIMURIUM, Strain/Indicator: TA98, Metabolic Activation: RAT, LIVER, S-9, PHENOBARBITAL AND NAPHTHOFLAVONE, Method: STANDARD PLATE", "value": "inactive; negative"}, {"measurement": "mutagenic call", "setting": "[4]", "value": "inactive; negative"}, {"measurement": "mutagenic call", "setting": "Test System: AMES SALMONELLA TYPHIMURIUM, Strain/Indicator: TA100, Metabolic Activation: RAT, LIVER, S-9, PHENOBARBITAL AND NAPHTHOFLAVONE, Method: STANDARD PLATE", "value": "inactive; negative"}]}, {"smiles": "O=[N+]([O-])c1ccc2c3ccccc3c3c([N+](=O)[O-])ccc4ccc1c2c43", "values": [{"measurement": "mutagenic call", "setting": "[2]", "value": "active; positive"}, {"measurement": "mutagenic call", "setting": "[3]", "value": "active; positive"}]}, {"smiles": "Nc1ccn(/C=C/C=O)c(=O)n1", "values": [{"measurement": "mutagenic call", "setting": "Test System: AMES SALMONELLA TYPHIMURIUM, Strain/Indicator: HISD3052, Metabolic Activation: NONE, Method: STANDARD PLATE", "value": "active; positive"}]}, {"smiles": "CN(C)c1ccc(N=Nc2ccccc2CO)cc1", "values": [{"measurement": "mutagenic call", "setting": "Test System: AMES SALMONELLA TYPHIMURIUM, Strain/Indicator: TA98, Metabolic Activation: RAT, LIVER, S-9, N-BENZYLIMIDAZOLE, Method: PREINCUBATION", "value": "active; positive"}]}, {"smiles": "CCCCN(CCCC(=O)O)N=O", "values": [{"measurement": "mutagenic call", "setting": "End Point: IN VITRO MICRONUCLEUS, Test System: CHL/IU CELLS, Metabolic Activation: NONE", "value": "active; positive"}, {"measurement": "mutagenic call", "setting": "Test System: AMES SALMONELLA TYPHIMURIUM, Strain/Indicator: TA100, Metabolic Activation: BOVINE, URINARY BLADDER, S-9, Method: PREINCUBATION", "value": "inactive; negative"}, {"measurement": "mutagenic call", "setting": "Test System: AMES SALMONELLA TYPHIMURIUM, Strain/Indicator: TA100, Metabolic Activation: PIG, URINARY BLADDER, S-9, Method: PREINCUBATION", "value": "inactive; negative"}, {"measurement": "mutagenic call", "setting": "Test System: AMES SALMONELLA TYPHIMURIUM, Strain/Indicator: TA100, Metabolic Activation: RAT, LIVER, MICROSOMES, SODIUM PHENOBARBITONE, Method: PREINCUBATION", "value": "inactive; negative"}, {"measurement": "mutagenic call", "setting": "Test System: AMES SALMONELLA TYPHIMURIUM, Strain/Indicator: TA100, Metabolic Activation: RAT, LIVER, S-9, AROCLOR, Method: PREINCUBATION", "value": "inactive; negative"}, {"measurement": "mutagenic call", "setting": "[1]", "value": "inactive; negative"}, {"measurement": "mutagenic call", "setting": "Test System: AMES SALMONELLA TYPHIMURIUM, Strain/Indicator: TA1535, Metabolic Activation: RAT, LIVER, MICROSOMES, SODIUM PHENOBARBITONE, Method: PREINCUBATION", "value": "inactive; negative"}, {"measurement": "mutagenic call", "setting": "Test System: AMES SALMONELLA TYPHIMURIUM, Strain/Indicator: TA1535, Metabolic Activation: RAT, LIVER, S-9, AROCLOR, Method: PREINCUBATION", "value": "inactive; negative"}, {"measurement": "mutagenic call", "setting": "Test System: AMES SALMONELLA TYPHIMURIUM, Strain/Indicator: TA1535, Metabolic Activation: RAT, LIVER, S-9, KC500 OR PHENOBARBITAL, Method: LIQUID SUSPENSION", "value": "active; positive"}]}, {"smiles": "COc1ccccc1NC(=O)C(N=Nc1ccc(-c2ccc(N=NC(C(C)=O)C(=O)Nc3ccccc3OC)c(Cl)c2)cc1Cl)C(C)=O", "note": "(stereo not given)", "values": [{"measurement": "mutagenic call", "setting": "Test System: AMES SALMONELLA TYPHIMURIUM, Strain/Indicator: TA98, Metabolic Activation: HAMSTER, LIVER, S-9, Method: PREINCUBATION (PRIVAL METHOD)", "value": "inactive; negative"}]}, {"smiles": "C[C@]12CC[C@@H]3c4cc(O)c(O)cc4CC[C@H]3[C@@H]1CCC2=O", "values": [{"measurement": "mutagenic call", "setting": "Test System: Ames Salmonella typhimurium, Strain/Indicator: TA98, Metabolic Activation: None, Method: Standard plate", "value": "inactive; negative"}, {"measurement": "mutagenic call", "setting": "Test System: Ames Salmonella typhimurium, Strain/Indicator: TA98, Metabolic Activation: Rat, liver, S-9, Method: Standard plate", "value": "inactive; negative"}, {"measurement": "mutagenic call", "setting": "Test System: Ames Salmonella typhimurium, Strain/Indicator: TA100, Metabolic Activation: None, Method: Standard plate", "value": "inactive; negative"}, {"measurement": "mutagenic call", "setting": "Test System: Ames Salmonella typhimurium, Strain/Indicator: TA100, Metabolic Activation: Rat, liver, S-9, Method: Standard plate", "value": "inactive; negative"}]}, {"smiles": "CS(=O)(=O)Nc1ccc(Nc2c3ccccc3nc3cc(N=[N+]=[N-])ccc23)cc1", "values": [{"measurement": "mutagenic call", "setting": "Test System: AMES SALMONELLA TYPHIMURIUM, Strain/Indicator: TA1537, Metabolic Activation: NONE, Method: STANDARD PLATE", "value": "active; positive"}]}, {"smiles": "O[C@@H]1C=Cc2ccc3c(ccc4ccccc43)c2[C@H]1O", "values": [{"measurement": "mutagenic call", "setting": "[2]", "value": "inactive; negative"}, {"measurement": "mutagenic call", "setting": "[3]", "value": "active; positive"}, {"measurement": "mutagenic call", "setting": "[4]", "value": "inactive; negative"}, {"measurement": "mutagenic call", "setting": "Test System: AMES SALMONELLA TYPHIMURIUM, Strain/Indicator: TA100, Metabolic Activation: RAT, LIVER, S-9, AROCLOR 1254, Method: STANDARD PLATE", "value": "active; positive"}]}]}
